According to patent publication US20040006236A1, “Diaminopropionic acid derivatives” (priority 1999, published 2004):

What was measured:
[1] = tested on: T lymphocyte proliferation (C57BI/6 spleen cells with irradiated BALB/c spleen cells); test: Mixed lymphocyte reaction (MLR), one-way; assay type: cell-based, mice; details: Mus musculus, T-lymphocyte; read-out: MLR IC50
How it was run: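 One-way murine MLR: C57BI/6 responder splenocytes proliferate against irradiated BALB/c stimulators while exposed to serially diluted antagonists in supplemented RPMI1640 for 3 days. Proliferation read as [3H]-thymidine uptake over a final 6 h pulse (0.5 μCi/well), scintillation counted.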

[2] = molecular target: T1, ICAM-1 binding to immobilized Mac-1 (Homo sapiens, UniProt P05107+P11215); test: Mac-1/ICAM-1 screening assay (solid-phase ELISA); details: read-out: Mac-1/ICAM-1 Protein-Protein Assay IC50
T1 construct: made in house; host or cells: transfected 293 cells (Mac-1)
How it was run: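 Competitive solid-phase ELISA: membrane Mac-1 from transfected 293 cells coated at 3 μg/mL in 20 mM Hepes pH 7.2/0.14 M NaCl/1 mM MnCl2; compounds (0.12 nM-20 μM, 1:4 series) plus 5dICAM-Ig (40 μg/mL, added) 2 h at 37° C. Bound ICAM-Ig detected with HRP anti-human IgG Fc, TMB, A450; IC50 reported.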

T1 sequence (P05107 23-769, other chains not shown): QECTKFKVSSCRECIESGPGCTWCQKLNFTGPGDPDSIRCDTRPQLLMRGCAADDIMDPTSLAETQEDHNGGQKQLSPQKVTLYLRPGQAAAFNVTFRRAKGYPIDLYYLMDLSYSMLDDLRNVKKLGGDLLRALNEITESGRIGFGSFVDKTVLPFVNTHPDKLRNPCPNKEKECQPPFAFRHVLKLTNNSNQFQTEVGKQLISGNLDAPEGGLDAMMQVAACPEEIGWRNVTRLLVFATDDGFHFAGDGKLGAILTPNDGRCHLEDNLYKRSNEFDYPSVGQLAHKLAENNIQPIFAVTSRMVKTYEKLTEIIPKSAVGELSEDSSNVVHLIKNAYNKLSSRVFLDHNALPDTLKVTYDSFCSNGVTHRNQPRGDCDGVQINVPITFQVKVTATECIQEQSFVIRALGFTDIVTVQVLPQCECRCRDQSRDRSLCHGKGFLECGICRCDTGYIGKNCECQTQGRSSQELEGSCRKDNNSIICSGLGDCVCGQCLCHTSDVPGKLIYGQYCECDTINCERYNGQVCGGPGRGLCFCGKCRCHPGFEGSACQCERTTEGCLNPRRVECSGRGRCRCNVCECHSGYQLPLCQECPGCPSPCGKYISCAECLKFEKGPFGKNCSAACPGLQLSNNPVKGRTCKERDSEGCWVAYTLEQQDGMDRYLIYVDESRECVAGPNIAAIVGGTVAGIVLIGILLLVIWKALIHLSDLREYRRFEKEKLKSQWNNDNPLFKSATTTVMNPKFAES

IC50 [2] [nM]	SMILES	IC50 [1] [nM]
27	O=C(NCc1cccc(O)c1)c1ccc(C(=O)N[C@@H](CNC(=O)c2cccc(C(F)(F)F)c2)C(=O)O)c(Cl)c1 [Example 146]	490
119	COc1cc(C(=O)NC[C@H](NC(=O)c2ccc(C(=O)NCc3cccc(O)c3)cc2Cl)C(=O)O)cc(OC)c1OC [Example 147]	4600
18	O=C(NCc1cccc(O)c1)c1ccc(C(=O)N[C@@H](CNC(=O)c2ccco2)C(=O)O)c(Cl)c1 [Example 148]	335
35	O=C(NCc1cccc(O)c1)c1ccc(C(=O)N[C@@H](CNC(=O)c2ccc([N+](=O)[O-])o2)C(=O)O)c(Cl)c1 [Example 149]	950
21	O=C(NCc1cccc(O)c1)c1ccc(C(=O)N[C@@H](CNC(=O)c2ccc(Br)o2)C(=O)O)c(Cl)c1 [Example 150]	800
33	O=C(NCc1cccc(O)c1)c1ccc(C(=O)N[C@@H](CNC(=O)c2ccc[nH]2)C(=O)O)c(Cl)c1 [Example 151]	265
11	O=C(NCc1cccc(O)c1)c1ccc(C(=O)N[C@@H](CNC(=O)c2sccc2Br)C(=O)O)c(Cl)c1 [Example 154]	365
13	O=C(NCc1cccc(O)c1)c1ccc(C(=O)N[C@@H](CNC(=O)c2ccc(Br)s2)C(=O)O)c(Cl)c1 [Example 155]	750
12	O=C(NCc1cccc(O)c1)c1ccc(C(=O)N[C@@H](CNC(=O)c2sccc2Cl)C(=O)O)c(Cl)c1 [Example 156]	465
7.7	O=C(NCc1cccc(O)c1)c1ccc(C(=O)N[C@@H](CNC(=O)c2ccc(Cl)s2)C(=O)O)c(Cl)c1 [Example 157]	700
20	O=C(NCc1cccc(O)c1)c1ccc(C(=O)N[C@@H](CNC(=O)c2cc(Br)c(Br)s2)C(=O)O)c(Cl)c1 [Example 158]	7600
13	Cc1ccsc1C(=O)NC[C@H](NC(=O)c1ccc(C(=O)NCc2cccc(O)c2)cc1Cl)C(=O)O [Example 159]	165
6.6	Cc1ccc(C(=O)NC[C@H](NC(=O)c2ccc(C(=O)NCc3cccc(O)c3)cc2Cl)C(=O)O)s1 [Example 160]	220
12	O=C(NCc1cccc(O)c1)c1ccc(C(=O)N[C@@H](CNC(=O)c2ccsc2)C(=O)O)c(Cl)c1 [Example 161]	94
40	Cc1cccc(C(=O)NC[C@H](NC(=O)c2ccc(C(=O)NCc3cccc(O)c3)cc2Cl)C(=O)O)n1 [Example 163]	1550
39	O=C(NCc1cccc(O)c1)c1ccc(C(=O)N[C@@H](CNC(=O)c2cccnc2)C(=O)O)c(Cl)c1 [Example 165]	800
600	O=C(NCc1cccc(O)c1)c1ccc(C(=O)N[C@@H](CNS(=O)(=O)c2ccccc2)C(=O)O)c(Cl)c1 [Example 360, 3-(phenylsulfonylamino)-N-[2-chloro-4-[[[(3-hydroxyphenyl)methyl]amino]carbonyl]benzoyl]-L-alanine]	4600
1530	CC(=O)Nc1nc(C)c(S(=O)(=O)NC[C@H](NC(=O)c2ccc(C(=O)N[C@H](C)c3cccc4ccccc34)cc2Cl)C(=O)O)s1 [Example 362]	15000
167	O=C(NCc1ccc(C(=O)N[C@@H](CNC(=O)c2ccccc2)C(=O)O)c(Cl)c1)c1cccc(O)c1 [Example 364, N-[2-chloro-4-[[(3-hydroxyphenyl)carbonyl]aminomethyl]benzoyl]-3-benzoylamino-L-alanine]	2850
208	O=C(NC[C@H](NC(=O)c1ccc(CNC(=O)c2ccccc2O)cc1Cl)C(=O)O)c1ccccc1 [Example 365]	9500
61	O=C(NCc1ccc(C(=O)N[C@@H](CNC(=O)c2ccccc2)C(=O)O)c(Cl)c1)c1cc(O)cc(O)c1 [Example 366]	1400
765	O=C(NCc1ccc(C(=O)N[C@@H](CNC(=O)c2ccccc2)C(=O)O)c(Cl)c1)c1ccc2[nH]ccc2c1 [Example 368]	3850
403	O=C(NCc1ccc(C(=O)N[C@@H](CNC(=O)c2ccccc2)C(=O)O)c(Cl)c1)c1ccc2cc[nH]c2c1 [Example 369]	3200
73	N=C(N)NC[C@H](NC(=O)c1ccc(C(=O)NCc2cccc(O)c2)cc1Cl)C(=O)O [Example 371, N-[2-chloro-4-[[[(3-hydroxyphenyl)methyl]amino]-carbonyl]benzoyl]-3-(aminoiminomethyl)amino-L-alanine]	3500
68	O=C(NC[C@H](NC(=O)c1ccc(/C=C/Cc2ccccc2)cc1Cl)C(=O)O)c1cccs1 [Example 373, N-[2-chloro-4-(3-phenyl-1-propenyl)benzoyl]-3-(thiophene-2-carbonyl)amino-L-alanine]	12500
160	O=C(NC[C@H](NC(=O)c1ccc(C(=O)[C@H]2C[C@@H]2c2ccccc2)cc1Cl)C(=O)O)c1cccs1 [Example 377]	9500
75	O=C(CCc1ccccc1)c1ccc(C(=O)N[C@@H](CNC(=O)c2cccs2)C(=O)O)c(Cl)c1 [Example 378]	6400
